“Also recorded” adds a separate entry of the source. Primed or numbered codes have the meaning given here. Where no end group is shown, it is not given here. [ ]: non-standard residue; d: D form. Amc = N-aminomethyl cyclohexanoic acid; Ahx = NCCCCCC(=O)O; E′E = Glu-urea-Glu
How the values were obtained:
[1] = cited from earlier work
[2] = hematological, biochemistry, and histopathological analyses; cited from earlier work
[3] = tested on: PC3-PIP tumors; design: species or system mice; conditions: mouse, in vivo
Protocol: (§1) Male NOD scid gamma (NSG) mice bearing PC3-PIP (PSMA+) and PC3-flu (PSMA−) tumor xenographs were used for imaging. The mice were injected with 3 mCi of [^99mTc]3. Four hours after tracer injection, SPECT/CT images were acquired using a high-resolution multi-pinhole SPECT with collimation insert with a clinical SPECT/CT scanner (Symbia T6, Siemens Molecular Imaging). DiFilippo, F. P. Phys Med Biol 53(15): 4185-4201 (2008). For the biodistribution study without imaging, male NSG mice bearing two PC3-PIP tumors were injected with 50-100 µCi of [^99mTc]3. Mice were sacrificed at 2 hours, 4 hours and 6 hours after injection. After thoracotomy, blood was first withdrawn from the heart, then the organs were resected en-block. The activities were counted with a Perkin Elmer 2480 Automatic Gamma Counter. The decay corrected percent injected dose per gram of organ weight (wet) (% ID/g) was calculated.

[4] = tested on: PC3-PIP (PSMA+) and PC3-flu (PSMA−) tumor xenographs; assay: SPECT/CT imaging of [^99mTc]3; type: in vivo, mice; conditions: 4 hours after tail vein injection
Protocol: as §1

[5] = type: physicochemical
Protocol: Labeling with technetium typically yields 95% radiochemical purity after SepPak purification. […] The kidneys and bladder are the most prominent organs on the images, because PSMA is expressed naturally in mouse kidneys and because it is a renally excreted compound. […] Tumor uptake is 6.0±1.6% at 2 hours, 6.0±2.2% at 4 hours and 5.7%±2.5% at 6 hours (Table 2). […] This is likely related to residual pertechnetate after cartridge purification and dissociation of technetium from the chelate.

Row | Compound | water solubility in words [1] | toxicity in words [2] | radioactivity in the stomach [3] | radioactivity in the thyroid [3] | SPECT/CT imaging result in words [4] | stability under solvent conditions for HPLC [5]
1 | CC1(C)C(=CC=C2CCCC(C=CC3=[N+](CCCCCC(=O)[O-])c4ccc(S(=O)(=O)[O-])cc4C3(C)C)=C2Oc2ccc(S(=O)(=O)[O-])cc2)N(CCCCS(=O)(=O)[O-])c2ccc(S(=O)(=O)[O-])cc21.[Na+].[Na+].[Na+].[Na+] [IRDye 800CW] | highly water soluble | no pathologic evidence of toxicity | – | – | – | –
2 | ^99mTc-E′EAmc-Ahx-dEdEdEGYGGGC ({E′E-Amc}-[Ahx][dE][dE][dE]GYGGGC; not fully specified (C-terminus); also: 99mTc chelated (N3S1)) [[^99mTc]3, Tc99m labeled compound 3] | – | – | 0.2 % ID/g | 0.3 % ID/g | specific targeting of PSMA+PC3-PIP tumors with no significant binding to PC3-flu tumors; also recorded: near background tracer uptake in the PSMA negative tumors, liver, lung, heart and spleen | not stable
